Assays:
[1] = target: T1, 5-hydroxytryptamine receptor 2A (Homo sapiens, UniProt P28223); assay: Displacement of [3H]Ketanserin from human 5HT2A receptor at 10 uM
[2] = target: T2, 5-hydroxytryptamine receptor 2B (Homo sapiens, UniProt P41595); assay: Displacement of [3H]LSD from human 5HT2B receptor at 10 uM
[3] = target: T3, 5-hydroxytryptamine receptor 2C (Homo sapiens) (UniProt P28335); assay: Displacement of [3H]Mesulergine from human 5HT2C receptor at 10 uM
T3 sequence (whole entry): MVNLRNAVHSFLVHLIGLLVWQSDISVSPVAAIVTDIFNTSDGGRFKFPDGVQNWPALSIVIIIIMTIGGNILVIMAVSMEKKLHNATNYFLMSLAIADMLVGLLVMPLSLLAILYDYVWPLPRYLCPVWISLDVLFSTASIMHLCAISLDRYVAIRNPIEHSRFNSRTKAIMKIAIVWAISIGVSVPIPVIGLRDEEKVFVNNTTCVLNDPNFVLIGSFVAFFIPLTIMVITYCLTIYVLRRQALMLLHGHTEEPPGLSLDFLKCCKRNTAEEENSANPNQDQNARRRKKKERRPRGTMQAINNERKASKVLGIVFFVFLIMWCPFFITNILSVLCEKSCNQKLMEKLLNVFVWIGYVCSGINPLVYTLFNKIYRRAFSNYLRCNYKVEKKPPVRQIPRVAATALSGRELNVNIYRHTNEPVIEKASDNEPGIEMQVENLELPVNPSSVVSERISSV

[4] = target: T1, 5-hydroxytryptamine receptor 2A; assay: Displacement of [3H]Ketanserin from human 5HT2A receptor
[5] = target: T2, 5-hydroxytryptamine receptor 2B; assay: Displacement of [3H]LSD from human 5HT2B receptor
[6] = target: T4, 5-hydroxytryptamine receptor 2C (Homo sapiens, UniProt P28335); assay: Displacement of [3H]Mesulergine from human 5HT2C receptor
T4 sequence (P28335 whole entry): T3 sequence (whole entry)

[7] = target: 5-hydroxytryptamine receptor 1A (Homo sapiens) (UniProt P08908); assay: Displacement of [3H]8-OH-DPAT from human 5HT1A receptor at 10 uM
[8] = target: 5-hydroxytryptamine receptor 1B (Homo sapiens) (UniProt P28222); assay: Displacement of [3H][…] from human 5HT1B receptor at 10 uM
[9] = target: 5-hydroxytryptamine receptor 1D (Homo sapiens) (UniProt P28221); assay: Displacement of [3H][…] from human 5HT1D receptor at 10 uM
[10] = target: 5-hydroxytryptamine receptor 1E (Homo sapiens) (UniProt P28566); assay: Displacement of [3H]5-HT from human 5HT1E receptor at 10 uM
[11] = target: 5-hydroxytryptamine receptor 3A (Homo sapiens) (UniProt P46098); assay: Displacement of [3H]LY278584 from human 5HT3 receptor at 10 uM
[12] = target: 5-hydroxytryptamine receptor 5A (Homo sapiens) (UniProt P47898); assay: Displacement of [3H]LSD from human 5HT5A receptor at 10 uM
[13] = target: 5-hydroxytryptamine receptor 7 (Homo sapiens) (UniProt P34969); assay: Displacement of [3H]LSD from human 5HT7 receptor at 10 uM
[14] = target: Alpha-1A adrenergic receptor (Homo sapiens) (UniProt P35348); assay: Displacement of [3H]Prazosin from human adrenergic alpha1A receptor at 10 uM
[15] = target: Beta-1 adrenergic receptor (Homo sapiens) (UniProt P08588); assay: Displacement of [125I]Iodopindolol from human adrenergic beta-1 receptor at 10 uM
[16] = target: Beta-2 adrenergic receptor (Homo sapiens) (UniProt P07550); assay: Displacement of [125I]Iodopindolol from human adrenergic beta2 receptor at 10 uM
[17] = target: Beta-3 adrenergic receptor (Homo sapiens) (UniProt P13945); assay: Displacement of [125I]Iodopindolol from human adrenergic beta3 receptor at 10 uM
[18] = target: D(1A) dopamine receptor (Homo sapiens) (UniProt P21728); assay: Displacement of [3H][…] from human dopamine D1 receptor at 10 uM
[19] = target: D(2) dopamine receptor (Homo sapiens) (UniProt P14416); assay: Displacement of [3H]N-methylspiperone from human dopamine D2 receptor at 10 uM
[20] = target: D(3) dopamine receptor (Homo sapiens) (UniProt P35462); assay: Displacement of [3H]N-methylspiperone from human dopamine D3 receptor at 10 uM
[21] = target: D(4) dopamine receptor (Homo sapiens) (UniProt P21917); assay: Displacement of [3H]N-methylspiperone from human dopamine D4 receptor at 10 uM
[22] = target: T5, Sodium-dependent dopamine transporter (Homo sapiens, UniProt Q01959); assay: Displacement of [3H][…] from human DAT at 10 uM
[23] = target: Delta-type opioid receptor (Homo sapiens) (UniProt P41143); assay: Displacement of [3H]DADLE from human delta opioid receptor at 10 uM
[24] = target: Histamine H1 receptor (Homo sapiens) (UniProt P35367); assay: Displacement of [3H]Pyrilamine from human histamine H1 receptor at 10 uM
[25] = target: Histamine H2 receptor (Homo sapiens) (UniProt P25021); assay: Displacement of [3H]Tiotidine from human histamine H2 receptor at 10 uM
[26] = target: Histamine H3 receptor (Homo sapiens) (UniProt Q9Y5N1); assay: Displacement of [3H]alpha-methylhistamine from human histamine H3 receptor at 10 uM
[27] = target: Histamine H4 receptor (Homo sapiens) (UniProt Q9H3N8); assay: Displacement of [3H]Histamine from human histamine H4 receptor at 10 uM
[28] = target: Kappa-type opioid receptor (Homo sapiens) (UniProt P41145); assay: Displacement of [3H]U69593 from human kappa opioid receptor at 10 uM
[29] = target: Muscarinic acetylcholine receptor M1 (Homo sapiens) (UniProt P11229); assay: Displacement of [3H]QNB from human muscarinic M1 receptor at 10 uM
[30] = target: Muscarinic acetylcholine receptor M2 (Homo sapiens) (UniProt P08172); assay: Displacement of [3H]QNB from human muscarinic M2 receptor at 10 uM
[31] = target: Muscarinic acetylcholine receptor M3 (Homo sapiens) (UniProt P20309); assay: Displacement of [3H]QNB from human muscarinic M3 receptor at 10 uM
[32] = target: Muscarinic acetylcholine receptor M4 (Homo sapiens) (UniProt P08173); assay: Displacement of [3H]QNB from human muscarinic M4 receptor at 10 uM
[33] = target: Muscarinic acetylcholine receptor M5 (Homo sapiens) (UniProt P08912); assay: Displacement of [3H]QNB from human muscarinic M5 receptor at 10 uM
[34] = target: T6, Sodium-dependent noradrenaline transporter (Homo sapiens, UniProt P23975); assay: Displacement of [3H]Nisoxetine from human NET at 10 uM
[35] = target: T7, Sodium-dependent serotonin transporter (Homo sapiens, UniProt P31645); assay: Displacement of [3H]Citalopram from human SERT at 10 uM
[36] = target: Sigma non-opioid intracellular receptor 1 (Homo sapiens) (UniProt Q99720); assay: Displacement of [3H]Pentazocine from human sigma 1 receptor at 10 uM
[37] = organism: Homo sapiens; assay: Displacement of [3H]DTG from human sigma 2 receptor at 10 uM
[38] = target: T5, Sodium-dependent dopamine transporter; assay: Displacement of [3H][…] from human DAT
[39] = target: T6, Sodium-dependent noradrenaline transporter; assay: Displacement of [3H]Nisoxetine from human NET
[40] = target: T7, Sodium-dependent serotonin transporter; assay: Displacement of [3H]Citalopram from human SERT
[41] = target: T2, 5-hydroxytryptamine receptor 2B; assay: Agonist activity at human 5HT2B receptor assessed as 5HT-induced calcium mobilization at 10 uM by FLIPR assay relative to 5HT; assay type: functional
[42] = target: T2, 5-hydroxytryptamine receptor 2B; assay: Antagonist activity at human 5HT2B receptor assessed as inhibition of 10633-induced calcium mobilization by FLIPR assay; assay type: functional
[43] = target: T2, 5-hydroxytryptamine receptor 2B; assay: Agonist activity at human 5HT2B receptor assessed as 10633-induced calcium mobilization by FLIPR assay; assay type: functional
[44] = target: T4, 5-hydroxytryptamine receptor 2C; assay: Agonist activity at human 5HT2C receptor assessed as 5HT-induced calcium mobilization by FLIPR assay; assay type: functional
[45] = target: T4, 5-hydroxytryptamine receptor 2C; assay: Agonist activity at human 5HT2C receptor assessed as 10633-induced calcium mobilization by FLIPR assay; assay type: functional
[46] = target: T2, 5-hydroxytryptamine receptor 2B; assay: Agonist activity at human 5HT2B receptor assessed as 5HT-induced calcium mobilization by FLIPR assay; assay type: functional
[47] = target: Mu-type opioid receptor (Homo sapiens) (UniProt P35372); assay: Displacement of [3H]DAMGO from human mu opioid receptor at 10 uM

T2 sequence (P41595 whole entry): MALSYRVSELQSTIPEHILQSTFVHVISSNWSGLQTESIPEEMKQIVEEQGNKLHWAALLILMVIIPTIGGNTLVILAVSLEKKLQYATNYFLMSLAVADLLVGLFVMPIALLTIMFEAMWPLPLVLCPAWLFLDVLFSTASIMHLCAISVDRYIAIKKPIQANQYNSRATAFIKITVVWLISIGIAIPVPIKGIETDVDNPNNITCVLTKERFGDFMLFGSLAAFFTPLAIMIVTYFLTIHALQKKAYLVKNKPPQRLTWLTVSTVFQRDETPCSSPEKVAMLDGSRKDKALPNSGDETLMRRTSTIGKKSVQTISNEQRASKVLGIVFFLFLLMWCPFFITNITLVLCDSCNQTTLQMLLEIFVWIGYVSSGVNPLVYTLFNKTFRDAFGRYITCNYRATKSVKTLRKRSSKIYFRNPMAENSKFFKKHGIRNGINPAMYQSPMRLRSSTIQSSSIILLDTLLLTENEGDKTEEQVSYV
T1 sequence (P28223 whole entry): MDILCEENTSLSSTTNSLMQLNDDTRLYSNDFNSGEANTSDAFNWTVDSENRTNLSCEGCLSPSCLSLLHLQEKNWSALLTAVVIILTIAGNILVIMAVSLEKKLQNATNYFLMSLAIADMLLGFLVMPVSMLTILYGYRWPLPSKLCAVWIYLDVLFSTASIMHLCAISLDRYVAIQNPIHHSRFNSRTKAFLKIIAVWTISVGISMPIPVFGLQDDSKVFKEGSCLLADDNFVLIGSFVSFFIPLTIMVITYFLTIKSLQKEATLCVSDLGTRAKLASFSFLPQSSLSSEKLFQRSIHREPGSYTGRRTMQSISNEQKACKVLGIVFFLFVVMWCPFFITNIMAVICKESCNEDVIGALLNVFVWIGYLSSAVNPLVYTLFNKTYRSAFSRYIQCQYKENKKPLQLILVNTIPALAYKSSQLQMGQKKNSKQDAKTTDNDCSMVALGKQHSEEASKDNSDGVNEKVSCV
T5 sequence (Q01959 whole entry): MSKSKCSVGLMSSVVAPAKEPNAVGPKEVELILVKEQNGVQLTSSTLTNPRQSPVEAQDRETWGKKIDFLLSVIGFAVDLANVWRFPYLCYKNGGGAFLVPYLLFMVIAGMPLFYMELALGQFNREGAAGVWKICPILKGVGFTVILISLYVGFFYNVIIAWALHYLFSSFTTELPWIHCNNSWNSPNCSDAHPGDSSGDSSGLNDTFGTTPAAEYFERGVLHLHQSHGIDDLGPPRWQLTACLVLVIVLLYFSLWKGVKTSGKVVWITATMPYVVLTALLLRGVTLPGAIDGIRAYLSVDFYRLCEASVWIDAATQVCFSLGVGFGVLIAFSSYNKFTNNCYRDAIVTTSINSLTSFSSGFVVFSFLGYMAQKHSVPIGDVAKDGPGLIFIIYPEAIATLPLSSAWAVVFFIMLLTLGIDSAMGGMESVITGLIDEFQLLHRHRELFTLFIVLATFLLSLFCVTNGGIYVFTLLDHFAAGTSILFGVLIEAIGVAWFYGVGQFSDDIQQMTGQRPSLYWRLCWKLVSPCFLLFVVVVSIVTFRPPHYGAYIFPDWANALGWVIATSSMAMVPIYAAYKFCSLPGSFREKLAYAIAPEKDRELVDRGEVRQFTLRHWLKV
T6 sequence (P23975 whole entry): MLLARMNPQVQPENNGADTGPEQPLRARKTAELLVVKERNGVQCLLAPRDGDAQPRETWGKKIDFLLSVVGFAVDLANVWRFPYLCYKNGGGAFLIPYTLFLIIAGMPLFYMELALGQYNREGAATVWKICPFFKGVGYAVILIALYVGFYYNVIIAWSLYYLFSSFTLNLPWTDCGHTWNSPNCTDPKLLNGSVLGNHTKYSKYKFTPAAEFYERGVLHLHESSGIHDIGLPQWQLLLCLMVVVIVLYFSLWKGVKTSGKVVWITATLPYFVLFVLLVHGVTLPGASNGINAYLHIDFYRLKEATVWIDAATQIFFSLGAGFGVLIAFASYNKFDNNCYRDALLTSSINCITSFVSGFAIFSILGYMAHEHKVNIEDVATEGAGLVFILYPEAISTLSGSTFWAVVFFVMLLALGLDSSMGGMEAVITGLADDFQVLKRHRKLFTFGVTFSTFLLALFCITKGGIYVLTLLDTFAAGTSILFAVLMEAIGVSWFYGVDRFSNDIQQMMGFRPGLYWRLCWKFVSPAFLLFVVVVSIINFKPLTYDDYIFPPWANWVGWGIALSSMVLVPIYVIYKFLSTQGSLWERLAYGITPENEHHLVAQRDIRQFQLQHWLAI
Sequence of D(2) dopamine receptor (Homo sapiens) (P14416 whole entry): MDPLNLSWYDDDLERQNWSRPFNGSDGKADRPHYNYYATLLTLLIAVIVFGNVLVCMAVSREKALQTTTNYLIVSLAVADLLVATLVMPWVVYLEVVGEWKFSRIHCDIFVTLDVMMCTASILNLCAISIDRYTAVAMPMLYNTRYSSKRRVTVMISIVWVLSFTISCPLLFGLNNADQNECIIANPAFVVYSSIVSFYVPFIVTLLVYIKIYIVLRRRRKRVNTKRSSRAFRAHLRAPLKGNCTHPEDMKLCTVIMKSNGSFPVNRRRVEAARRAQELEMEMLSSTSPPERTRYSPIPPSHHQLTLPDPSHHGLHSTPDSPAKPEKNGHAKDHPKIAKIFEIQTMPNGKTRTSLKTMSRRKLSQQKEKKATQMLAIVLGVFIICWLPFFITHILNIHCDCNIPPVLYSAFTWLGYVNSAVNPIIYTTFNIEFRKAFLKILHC
Sequence of Delta-type opioid receptor (Homo sapiens) (P41143 whole entry): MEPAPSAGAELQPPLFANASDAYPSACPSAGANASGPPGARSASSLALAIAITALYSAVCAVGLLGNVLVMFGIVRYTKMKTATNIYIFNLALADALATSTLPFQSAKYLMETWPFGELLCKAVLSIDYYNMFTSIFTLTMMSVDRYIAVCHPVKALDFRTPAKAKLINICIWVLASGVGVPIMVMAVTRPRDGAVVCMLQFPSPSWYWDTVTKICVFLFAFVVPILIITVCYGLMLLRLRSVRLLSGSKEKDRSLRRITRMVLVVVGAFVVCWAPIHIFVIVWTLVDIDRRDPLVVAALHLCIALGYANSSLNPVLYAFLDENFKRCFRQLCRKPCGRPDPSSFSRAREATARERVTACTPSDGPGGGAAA
Sequence of Muscarinic acetylcholine receptor M3 (Homo sapiens) (P20309 whole entry, looked up): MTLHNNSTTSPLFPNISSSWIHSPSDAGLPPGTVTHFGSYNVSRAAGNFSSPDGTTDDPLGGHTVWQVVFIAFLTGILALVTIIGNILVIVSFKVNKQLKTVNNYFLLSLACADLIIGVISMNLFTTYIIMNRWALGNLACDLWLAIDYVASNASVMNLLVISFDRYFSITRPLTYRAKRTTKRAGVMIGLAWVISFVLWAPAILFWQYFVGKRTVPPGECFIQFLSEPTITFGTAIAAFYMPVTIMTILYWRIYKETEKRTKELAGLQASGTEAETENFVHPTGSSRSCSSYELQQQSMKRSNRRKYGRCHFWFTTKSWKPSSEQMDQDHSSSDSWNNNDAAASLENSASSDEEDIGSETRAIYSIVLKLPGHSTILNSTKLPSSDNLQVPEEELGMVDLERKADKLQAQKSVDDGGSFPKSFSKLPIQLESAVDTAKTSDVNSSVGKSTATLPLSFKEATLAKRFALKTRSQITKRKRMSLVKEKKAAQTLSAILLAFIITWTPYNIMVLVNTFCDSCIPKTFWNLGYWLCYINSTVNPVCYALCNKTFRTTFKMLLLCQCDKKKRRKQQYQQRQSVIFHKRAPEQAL
Sequence of Beta-2 adrenergic receptor (Homo sapiens) (P07550 whole entry, looked up): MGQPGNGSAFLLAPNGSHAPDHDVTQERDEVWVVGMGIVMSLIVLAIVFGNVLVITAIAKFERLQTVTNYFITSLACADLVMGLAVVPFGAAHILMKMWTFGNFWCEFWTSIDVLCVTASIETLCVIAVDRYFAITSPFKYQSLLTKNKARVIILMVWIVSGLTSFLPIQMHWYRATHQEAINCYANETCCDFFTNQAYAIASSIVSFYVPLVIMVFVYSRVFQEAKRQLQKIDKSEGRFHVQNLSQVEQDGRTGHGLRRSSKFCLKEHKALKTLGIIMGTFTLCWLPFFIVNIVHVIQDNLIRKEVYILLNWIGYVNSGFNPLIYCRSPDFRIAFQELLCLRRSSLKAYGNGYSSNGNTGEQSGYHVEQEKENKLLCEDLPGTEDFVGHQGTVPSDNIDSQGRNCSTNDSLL
Sequence of Sigma non-opioid intracellular receptor 1 (Homo sapiens) (Q99720 whole entry): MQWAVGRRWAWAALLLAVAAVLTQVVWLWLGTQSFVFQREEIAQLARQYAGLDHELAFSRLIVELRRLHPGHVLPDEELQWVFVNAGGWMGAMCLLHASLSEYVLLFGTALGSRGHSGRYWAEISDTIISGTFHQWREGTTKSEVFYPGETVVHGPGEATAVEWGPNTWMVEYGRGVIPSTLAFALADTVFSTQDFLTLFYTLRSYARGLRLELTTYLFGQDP
Sequence of Muscarinic acetylcholine receptor M4 (Homo sapiens) (P08173 whole entry): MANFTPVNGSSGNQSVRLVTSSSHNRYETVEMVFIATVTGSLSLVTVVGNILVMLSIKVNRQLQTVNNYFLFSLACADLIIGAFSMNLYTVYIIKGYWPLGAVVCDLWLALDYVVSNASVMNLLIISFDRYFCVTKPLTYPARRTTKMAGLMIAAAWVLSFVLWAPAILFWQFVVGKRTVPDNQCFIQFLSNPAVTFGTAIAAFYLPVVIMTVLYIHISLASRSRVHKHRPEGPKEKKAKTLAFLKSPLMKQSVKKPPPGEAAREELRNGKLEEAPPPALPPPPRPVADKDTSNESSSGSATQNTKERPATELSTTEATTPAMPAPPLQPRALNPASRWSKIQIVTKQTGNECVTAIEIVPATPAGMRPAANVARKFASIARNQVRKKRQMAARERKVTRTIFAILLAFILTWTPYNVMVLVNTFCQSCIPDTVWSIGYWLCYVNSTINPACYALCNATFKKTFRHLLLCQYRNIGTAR

`CC(C)NC(=O)N1OCC2COc3ccccc3C21` (stereo unspecified) gave an inhibition [1] of -0.2%, an inhibition [2] of 14.8% and an inhibition [3] of 28.9%. For the same compound, the Ki [4] was greater than 10 µM, the Ki [5] was greater than 10 µM and the Ki [6] was greater than 10 µM.

`O=C(Nc1ccccc1)N1OCC2CSc3ccc(F)cc3C21` (stereo unspecified) was tested, and the inhibition [1] was 33.6%, the inhibition [2] was 95.3% and the inhibition [3] was 61.2%. It also gave a Ki [4] greater than 10 µM, a Ki [5] of 0.223 µM and a Ki [6] of 5.17 µM.

`CC(C)NC(=O)N1OCC2CSc3ccc(F)cc3C21` (stereo unspecified) gave an inhibition [1] of 2.2%, an inhibition [2] of 89.3% and an inhibition [3] of 55.4%. For the same compound, the Ki [4] was greater than 10 µM, the Ki [5] was 0.569 µM and the Ki [6] was greater than 10 µM.

In the case of `CCCCNC(=O)N1OCC2CSc3ccc(F)cc3C21` (stereo unspecified), the inhibition [2] is reported as 92%, the inhibition [3] is reported as 34.9% and the Ki [4] is reported as greater than 10 µM. For the same compound, the Ki [5] was 0.489 µM and the Ki [6] was greater than 10 µM.

`CCCNC(=O)N1OCC2COc3ccccc3C21` (stereo unspecified) showed an inhibition [1] of 2.4%, an inhibition [2] of 53.5% and an inhibition [3] of 14.7%. It also gave a Ki [4] greater than 10 µM, a Ki [5] of 6.6 µM and a Ki [6] greater than 10 µM.

`O=C(NC1CCCCC1)N1OCC2CSc3ccc(F)cc3C21` (stereo unspecified) showed an inhibition [1] of 6.2%, an inhibition [2] of 102% and an inhibition [3] of 30%. The Ki [4] was greater than 10 µM, the Ki [5] was 0.042 µM and the Ki [6] was greater than 10 µM. It also gave an inhibition [7] of 36.9%, an inhibition [8] of 1.3% and an inhibition [9] of 4.5%. It also gave an inhibition [10] of -7.8%, an inhibition [11] of -8.7% and an inhibition [12] of 46.6%. It also gave an inhibition [13] of 27.1%, an inhibition [14] of 37.8% and an inhibition [15] of 2.4%. For the same compound, the inhibition [16] was 3.7%, the inhibition [17] was 7.1% and the inhibition [18] was 14%. It also gave an inhibition [19] of 8.1%, an inhibition [20] of 3.2% and an inhibition [21] of 12%. The inhibition [22] was 66.3%, the inhibition [23] was -3.2% and the inhibition [24] was -4.3%. For the same compound, the inhibition [25] was 30.8%, the inhibition [26] was -10% and the inhibition [27] was -0.5%. It also gave an inhibition [28] of 34.6%, an inhibition [29] of 23.4% and an inhibition [30] of 23.7%. The inhibition [31] was 20.6%, the inhibition [32] was 44.9% and the inhibition [33] was 31.8%. It also gave an inhibition [34] of 34.1%, an inhibition [35] of 20.4% and an inhibition [36] of 16.5%. It also gave an inhibition [37] of 1.1%, a Ki [38] greater than 10 µM and a Ki [39] greater than 10 µM. For the same compound, the Ki [40] was greater than 10 µM, the Efficacy [41] was 0.5% and the IC50 [42] was 0.0427 µM. The EC50 [43] was greater than 10 µM, the EC50 [44] was 0.000724 µM and the EC50 [45] was greater than 10 µM. The EC50 [46] was 0.00398 µM and the inhibition [47] was 8.9%.

Work on `CCCNC(=O)N1OCC2CSc3ccc(F)cc3C21` (stereo unspecified) yielded an inhibition [2] of 93%, an inhibition [3] of 37.4% and a Ki [4] greater than 10 µM. It also gave a Ki [5] of 0.384 µM and a Ki [6] greater than 10 µM.

`CC(C)(C)NC(=O)N1OCC2COc3ccccc3C21` (stereo unspecified) gave an inhibition [1] of 12%, an inhibition [2] of 43% and an inhibition [3] of 25.9%. The Ki [4] was greater than 10 µM, the Ki [5] was greater than 10 µM and the Ki [6] was greater than 10 µM.

`CCCCNC(=O)N1OCC2COc3ccccc3C21` (stereo unspecified) was tested, and the inhibition [1] was 0.8%, the inhibition [2] was 35.4% and the inhibition [3] was 23.4%. For the same compound, the Ki [4] was greater than 10 µM, the Ki [5] was greater than 10 µM and the Ki [6] was greater than 10 µM.

`O=C(NC1CCCCC1)N1OCC2COc3ccccc3C21` (stereo unspecified) gave an inhibition [1] of 5.5%, an inhibition [2] of 75.5% and an inhibition [3] of 28.1%. The Ki [4] was greater than 10 µM, the Ki [5] was 1.77 µM and the Ki [6] was greater than 10 µM.

Compound `O=C(Nc1ccccc1)N1OCC2COc3ccccc3C21` (stereo unspecified) has an inhibition [1] of 11%, an inhibition [2] of 71.6% and an inhibition [3] of 56.7%. The Ki [4] was greater than 10 µM, the Ki [5] was 1.61 µM and the Ki [6] was greater than 10 µM.

`Cc1ccccc1NC(=O)N1OCC2COc3ccccc3C21` (stereo unspecified) gave an inhibition [1] of 12.8%, an inhibition [2] of 52.2% and an inhibition [3] of 40.2%. It also gave a Ki [4] greater than 10 µM, a Ki [5] of 4 µM and a Ki [6] greater than 10 µM.

Reference: ChEMBL document CHEMBL1221330, “N-tetrahydrothiochromenoisoxazole-1-carboxamides as selective antagonists of cloned human 5-HT2B” (Bioorg Med Chem Lett, 2010)
